Laboratory results: PMC7717600, “Novel [(N-alkyl-3-indolylmethylene)hydrazono]oxindoles arrest cell cycle and induce cell apoptosis by inhibiting CDK2 and Bcl-2: synthesis, biological evaluation and in silico studies” (Journal of Enzyme Inhibition and Medicinal Chemistry, 2020)

Experiments:
[1] = test system: NCI/ADR-RES; conditions: 10 μM
[2] = test system: SK-MEL-2; conditions: SK-MEL-2, 10 μM
[3] = test system: HCT-15; conditions: HCT-15, 10 μM
[4] = test system: 786-0; conditions: 786-0, 10 μM
[5] = test system: RXF 393; conditions: RXF 393, 10 μM
[6] = test system: ACHN; conditions: 10 μM
[7] = test system: MCF7; conditions: MCF7, 10 μM
[8] = test system: MALME-3M; conditions: 10 μM
[9] = test system: MOLT-4; conditions: MOLT-4, 10 μM
[10] = test system: UO-31; conditions: UO-31, 10 μM
[11] = test system: UACC-62; conditions: UACC-62, 10 μM
[12] = test system: T-47D; conditions: 10 μM
[13] = test system: SNB-19; conditions: SNB-19, 10 μM
[14] = test system: RPMI-8226; conditions: RPMI-8226, 10 μM
[15] = test system: SF-539; conditions: SF-539, 10 μM
[16] = test system: SW-620; conditions: SW-620, 10 μM
[17] = test system: HOP-62; conditions: HOP-62, 10 μM
[18] = test system: SR; conditions: 10 μM
[19] = test system: SNB-75; conditions: SNB-75, 10 μM
[20] = test system: PC-3; assay: NCI SRB screening; format: cell-based, human; conditions: PC-3, 10 μM
[21] = test system: HCC-2998; assay: NCI SRB screening; format: cell-based, human; conditions: HCC-2998, 10 μM
[22] = test system: K-562; conditions: K-562, 10 μM
[23] = test system: U251; conditions: U251, 10 μM
[24] = test system: HCT-116; assay: SRB anti-proliferative assay; format: cell-based; conditions: Homo sapiens; HCT-116, SRB, mean ± SE of 3
[25] = test system: MDA-MB-231; assay: SRB anti-proliferative assay; format: cell-based; conditions: Homo sapiens; MDA-MB-231, SRB, mean ± SE of 3
[26] = test system: HS 578T; conditions: 10 μM
[27] = test system: A498; conditions: A498, 10 μM
[28] = test system: UACC-257; conditions: UACC-257, 10 μM
[29] = test system: OVCAR-8; conditions: OVCAR-8, 10 μM
[30] = test system: NCI-H460; assay: NCI SRB screening; format: cell-based, human; conditions: NCI-H460, 10 μM
[31] = test system: TK-10; conditions: TK-10, 10 μM
[32] = test system: LOX IMVI; assay: NCI SRB screening; format: cell-based, human; conditions: 10 μM
[33] = test system: CCRF-CEM; conditions: 10 μM
[34] = test system: OVCAR-4; conditions: OVCAR-4, 10 μM
[35] = test system: OVCAR-3; conditions: OVCAR-3, 10 μM
[36] = test system: BT-549; conditions: BT-549, 10 μM
[37] = test system: HOP-92; conditions: HOP-92, 10 μM
[38] = test system: NCI-H226; conditions: NCI-H226, 10 μM
[39] = test system: SK-OV-3; conditions: SK-OV-3, 10 μM
[40] = test system: HL-60(TB); conditions: HL-60(TB), 10 μM
[41] = test system: NCI-H322M; assay: NCI SRB screening; conditions: 10 μM
[42] = test system: MDA-MB-231/ATCC; conditions: MDA-MB-231, 10 μM
[43] = test system: A-549; assay: SRB anti-proliferative assay; format: cell-based; conditions: Homo sapiens, A549; A-549, SRB, mean ± SE of 3

In the case of `C=CCn1cc(C=NN=C2C(=O)Nc3ccccc32)c2ccccc21` [Compound 10a], the GI % [1] is reported as “– (Only GI % higher than 10% are shown)”, the GI % [2] is reported as “– (Only GI % higher than 10% are shown)” and the GI % [3] is reported as 15%. For the same compound, the GI % [4] was “– (Only GI % higher than 10% are shown)”, the GI % [5] was 11% and the GI % [6] was “– (Only GI % higher than 10% are shown)”. The GI % [7] was 33%, the GI % [8] was 26% and the GI % [9] was 35%. For the same compound, the GI % [10] was 33%, the GI % [11] was 25% and the GI % [12] was 56%. The GI % [13] was “– (Only GI % higher than 10% are shown)”, the GI % [14] was 13% and the GI % [15] was “– (Only GI % higher than 10% are shown)”. For the same compound, the GI % [16] was “– (Only GI % higher than 10% are shown)”, the GI % [17] was “– (Only GI % higher than 10% are shown)” and the GI % [18] was 50%. For the same compound, the GI % [19] was 18%, the GI % [20] was 22% and the GI % [21] was “– (Only GI % higher than 10% are shown)”. It also gave a GI % [22] of 30%, a GI % [23] of 10% and an IC50 [24] of 7.7 ± 0.68 µM. The IC50 [25] was 11.7 ± 1.04 µM, the GI % [26] was “– (Only GI % higher than 10% are shown)” and the GI % [27] was “– (Only GI % higher than 10% are shown)”. The GI % [28] was “– (Only GI % higher than 10% are shown)”, the GI % [29] was 15% and the GI % [30] was “– (Only GI % higher than 10% are shown)”. For the same compound, the GI % [31] was “– (Only GI % higher than 10% are shown)”, the GI % [32] was “– (Only GI % higher than 10% are shown)” and the GI % [33] was “– (Only GI % higher than 10% are shown)”. The GI % [34] was 27%, the GI % [35] was 21% and the GI % [36] was “– (Only GI % higher than 10% are shown)”. The GI % [37] was “– (Only GI % higher than 10% are shown)”, the GI % [38] was 13% and the GI % [39] was “– (Only GI % higher than 10% are shown)”. The GI % [40] was 22%, the GI % [41] was “– (Only GI % higher than 10% are shown)” and the GI % [42] was “– (Only GI % higher than 10% are shown)”. It also gave an IC50 [43] of 17.3 ± 1.19 µM.

In the case of `C=CCn1cc(C=NN=C2C(=O)Nc3c(F)cccc32)c2ccccc21` [Compound 10c], the GI % [1] is reported as “– (Only GI % higher than 10% are shown)”, the GI % [2] is reported as “– (Only GI % higher than 10% are shown)” and the GI % [3] is reported as 22%. The GI % [4] was “– (Only GI % higher than 10% are shown)”, the GI % [5] was “– (Only GI % higher than 10% are shown)” and the GI % [6] was 11%. The GI % [7] was 31%, the GI % [8] was “– (Only GI % higher than 10% are shown)” and the GI % [9] was 19%. The GI % [10] was 29%, the GI % [11] was 15% and the GI % [12] was 50%. The GI % [13] was “– (Only GI % higher than 10% are shown)”, the GI % [14] was “– (Only GI % higher than 10% are shown)” and the GI % [15] was “– (Only GI % higher than 10% are shown)”. For the same compound, the GI % [16] was “– (Only GI % higher than 10% are shown)”, the GI % [17] was “– (Only GI % higher than 10% are shown)” and the GI % [18] was 58%. The GI % [19] was “– (Only GI % higher than 10% are shown)”, the GI % [20] was 10% and the GI % [21] was “– (Only GI % higher than 10% are shown)”. For the same compound, the GI % [22] was 20%, the GI % [23] was “– (Only GI % higher than 10% are shown)” and the IC50 [24] was 7.3 ± 0.47 µM. For the same compound, the IC50 [25] was 35.4 ± 1.92 µM, the GI % [26] was “– (Only GI % higher than 10% are shown)” and the GI % [27] was “– (Only GI % higher than 10% are shown)”. For the same compound, the GI % [28] was “– (Only GI % higher than 10% are shown)”, the GI % [29] was 11% and the GI % [30] was “– (Only GI % higher than 10% are shown)”. The GI % [31] was “– (Only GI % higher than 10% are shown)”, the GI % [32] was “– (Only GI % higher than 10% are shown)” and the GI % [33] was 17%. For the same compound, the GI % [34] was 22%, the GI % [35] was 13% and the GI % [36] was “– (Only GI % higher than 10% are shown)”. The GI % [37] was “– (Only GI % higher than 10% are shown)”, the GI % [38] was 56% and the GI % [39] was “– (Only GI % higher than 10% are shown)”. The GI % [40] was “– (Only GI % higher than 10% are shown)”, the GI % [41] was “– (Only GI % higher than 10% are shown)” and the GI % [42] was “– (Only GI % higher than 10% are shown)”. The IC50 [43] was 43.8 ± 2.96 µM.

For `C=CCn1cc(C=NN=C2C(=O)Nc3ccc(Cl)cc32)c2ccccc21` [Compound 10d], the GI % [1] was “– (Only GI % higher than 10% are shown)”, the GI % [2] was “– (Only GI % higher than 10% are shown)” and the GI % [3] was 10%. The GI % [4] was “– (Only GI % higher than 10% are shown)”, the GI % [5] was “– (Only GI % higher than 10% are shown)” and the GI % [6] was “– (Only GI % higher than 10% are shown)”. For the same compound, the GI % [7] was 18%, the GI % [8] was “– (Only GI % higher than 10% are shown)” and the GI % [9] was 14%. It also gave a GI % [10] of 23%, a GI % [11] of 19% and a GI % [12] of 30%. For the same compound, the GI % [13] was “– (Only GI % higher than 10% are shown)”, the GI % [14] was “– (Only GI % higher than 10% are shown)” and the GI % [15] was “– (Only GI % higher than 10% are shown)”. For the same compound, the GI % [16] was “– (Only GI % higher than 10% are shown)”, the GI % [17] was “– (Only GI % higher than 10% are shown)” and the GI % [18] was 33%. For the same compound, the GI % [19] was “– (Only GI % higher than 10% are shown)”, the GI % [20] was “– (Only GI % higher than 10% are shown)” and the GI % [21] was “– (Only GI % higher than 10% are shown)”. For the same compound, the GI % [22] was “– (Only GI % higher than 10% are shown)”, the GI % [23] was “– (Only GI % higher than 10% are shown)” and the IC50 [24] was 28.5 ± 1.59 µM. The IC50 [25] was 42.9 ± 2.51 µM, the GI % [26] was “– (Only GI % higher than 10% are shown)” and the GI % [27] was “– (Only GI % higher than 10% are shown)”. For the same compound, the GI % [28] was “– (Only GI % higher than 10% are shown)”, the GI % [29] was “– (Only GI % higher than 10% are shown)” and the GI % [30] was “– (Only GI % higher than 10% are shown)”. The GI % [31] was “– (Only GI % higher than 10% are shown)”, the GI % [32] was “– (Only GI % higher than 10% are shown)” and the GI % [33] was “– (Only GI % higher than 10% are shown)”. For the same compound, the GI % [34] was “– (Only GI % higher than 10% are shown)”, the GI % [35] was “– (Only GI % higher than 10% are shown)” and the GI % [36] was “– (Only GI % higher than 10% are shown)”. For the same compound, the GI % [37] was “– (Only GI % higher than 10% are shown)”, the GI % [38] was 41% and the GI % [39] was “– (Only GI % higher than 10% are shown)”. For the same compound, the GI % [40] was “– (Only GI % higher than 10% are shown)”, the GI % [41] was “– (Only GI % higher than 10% are shown)” and the GI % [42] was “– (Only GI % higher than 10% are shown)”. It also gave an IC50 [43] of 53.1 ± 4.13 µM.
